Results published in article PMC6792352, “Limited Chemical Structural Diversity Found to Modulate Thyroid Hormone Receptor in the Tox21 Chemical Library” (Environmental Health Perspectives, 2019).
Counter-ions that a name gives are not always drawn.

assay: in vitro; details: rat, gh3-tre-luc cells, AC50 (uM) modified / 1000

Row | SMILES | CC50 at 24 h [µM]
1 | CCCCCCCCCCCCOC(=O)c1ccc(O)cc1 [Dodecylparaben] | 26
2 | CCN(CC)C(=O)N(CC)CC [Tetraethylurea] | > 90
3 | CCCCCCCCCCCCCCC [Pentadecane] | > 90
4 | CC[C@]1(O)CC[C@H]2[C@@H]3CCC4=CCCC[C@@H]4[C@H]3CC[C@@]21C [Ethylestrenol] | > 50
5 | Oc1ccc(CCNCCCCCCNCCc2ccccc2)cc1O [Dopexamine] | 37.1
6 | COC(=O)/C=C\C(=O)OC [Dimethyl maleate] | > 90
7 | Cc1ccc(S(=O)(=O)NC(=O)NN2CCCCCC2)cc1 [Tolazamide] | > 90
8 | Clc1nc(Cl)c(Cl)c(Cl)c1Cl [Pentachloropyridine] | > 90
9 | Nc1cc(S(=O)(=O)O)ccc1O [2-Amino-1-phenol-4-sulfonic acid] | > 90
10 | NC(=O)N(O)[C@@H]1COc2cc(OCc3ccccc3)ccc21 [SB202235] | > 90
11 | Oc1cc(O)c(Cl)cn1 [Gimeracil] | > 50
12 | O=C(O)c1cccc(O)c1 [3-Hydroxybenzoic acid] | > 90
13 | O=C(O)c1cc(C(=O)O)c(C(=O)O)cc1C(=O)O [Pyromellitic acid] | > 90
14 | CCCCCCCOC(=O)CCC [Heptyl butanoate] | > 90
15 | OCCN1C[C@H](O)[C@@H](O)[C@H](O)[C@H]1CO [Miglitol] | > 50
16 | C[N+]1(CCF)[C@@H]2CC[C@H]1CC(OC(=O)C(O)(c1ccccc1)c1ccccc1)C2 (stereo partly drawn) [Flutropium bromide] | > 50
17 | CN(C/C=C/C#CC(C)(C)C)Cc1cccc2ccccc12 [Terbinafine] | 38.3
18 | O=C(Cc1cccs1)N[C@@H]1C(=O)N2C(C(=O)[O-])=C(C[n+]3ccccc3)CS[C@H]12 [Cephaloridine] | > 50
19 | O=C(CCC1CCN(Cc2ccccc2)CC1)c1ccc2c(c1)NCCCC2 [Zanapezil fumerate] | > 50
20 | CC(C)=CCO [3-Methyl-2-buten-1-ol] | > 90
21 | Cc1cc(O)c(C(C)(C)C)cc1Sc1cc(C(C)(C)C)c(O)cc1C [4,4'-Thiobis(6-tert-butyl-m-cresol)] | 3.64
22 | NC[C@H]1CC[C@H](C(=O)Oc2ccc(CCC(=O)O)cc2)CC1 [Cetraxate hydrochloride] | > 50
23 | CCOC(=O)[C@H](CCc1ccccc1)N[C@@H](C)C(=O)N1Cc2cc(OC)c(OC)cc2C[C@H]1C(=O)O [Moexipril hydrochloride] | > 50

Row | SMILES | CC50 at 24 h [µM]
24 | CN(C)N=Nc1ccccc1 [1-Phenyl-3,3-dimethyltriazene] | > 90
25 | Cc1ccc2c(C)cccc2c1 [1,6-Dimethylnaphthalene] | > 90
26 | CCCCN(CCCC)CCC(O)c1cc2c(Cl)cc(Cl)cc2c2cc(C(F)(F)F)ccc12 (stereo not drawn) [Halofantrine hydrochloride] | > 20
27 | CC(=O)c1ccc(Cl)c(Cl)c1Cl [2',3',4'-Trichloroacetophenone] | > 90
28 | O=C(Cn1cnnn1)N[C@@H]1C(=O)N2C(C(=O)O)=C(CSc3nncs3)CS[C@H]12 [Ceftezole sodium] | > 50
29 | CCC[N+]1(C)CCCC1 [1-Methyl-1-propylpyrrolidinium bromide] | > 90
30 | NCC1(CC(=O)O)CCCCC1 [Gabapentin] | > 20
31 | N[C@@H](CCC(=O)O)C(=O)O [L-Glutamic acid hydrochloride] | > 90
32 | Cc1ccc(C(=O)C(C)CN2CCCCC2)cc1 (stereo not drawn) [Tolperisone hydrochloride] | > 50
33 | CCN1CCc2nc(N)oc2CC1 [Azepexole hydrochloride] | > 50
34 | CC(C)CNCC(C)C [Diisobutylamine] | > 90
35 | O=CC1CC=CCC1 (stereo not drawn) [3-Cyclohexene-1-carboxaldehyde] | > 90
36 | CCCCCc1ccco1 [2-Pentylfuran] | > 60
37 | c1nc[nH]n1 [1,2,4-Triazole, sodium salt] | > 90
38 | COc1cc(-c2nc(NC(=O)c3cc4cc(C)cc(C)c4n3CC(=O)O)sc2CCC2CCCCC2)c(OC)cc1Cl [SR146131 trifluoroacetate (1:1)] | 12.1
39 | CN[C@@H]1C[C@@H](c2ccc(Cl)c(Cl)c2)c2ccccc21 [Indatraline hydrochloride] | 10
40 | COc1ccc(NC(C)=O)cc1 [N-(4-Methoxyphenyl)acetamide] | > 90
41 | COc1ccc(/C=N/NC(=O)c2ccncc2)c(C(=O)O)c1OC [Opiniazide] | > 50
42 | O=C1O[C@H]([C@@H](O)CO)C(O)=C1O [L-Ascorbic acid] | > 90
43 | CC(=O)c1ccc2c(c1)N(CCCN1CCN(CCO)CC1)c1ccccc1S2 [Acetophenazine dimaleate] | 16.5
44 | O=S(=O)(O)c1cccc2ccccc12 [Sodium 1-naphthalenesulfonate] | > 90
45 | COc1ccc2c3c1O[C@H]1C[C@@H](O)C=C[C@@]31CCN(C)C2 [Galanthamine] | > 50
46 | CC(=N)S [Thioacetamide] | > 90

Row | SMILES | CC50 at 24 h [µM]
47 | CC1(C)S[C@@H]2[C@H](N3C(=O)[C@@H](c4ccccc4)NC3(C)C)C(=O)N2[C@H]1C(=O)O [Hetacillin potassium] | > 50
48 | CCCCCCC(=O)c1ccccc1 [Heptanophenone] | > 90
49 | CCN1C[C@]2(COC)[C@H](O)C[C@H](OC)[C@]34C1[C@H]([C@H](OC)[C@H]23)[C@]1(OC(C)=O)[C@H]2[C@@H](OC(=O)c3ccccc3)[C@](O)(C[C@H]24)[C@@H](OC)[C@@H]1O [Aconitine] | > 50
50 | Clc1ccc(C(Cn2ccnc2)OCc2ccsc2Cl)c(Cl)c1 (stereo not drawn) [Tioconazole] | 14.7
51 | CNC(=O)ON=CC(C)(C)[S+](C)[O-] (stereo not drawn) [Aldicarb sulfoxide] | > 90
52 | CN(C)c1ccc(C(=C2C=CC(=[N+](C)C)C=C2)c2c(O)c(S(=O)(=O)[O-])cc3cc(S(=O)(=O)O)ccc23)cc1 [Acid green 50] | 30.6
53 | C#CC(C)(C)NC(=O)c1cc(Cl)cc(Cl)c1 [Propyzamide] | > 90
54 | CC(C)CCCC(C)CCCC(C)CCCCC(C)CCCC(C)CCCC(C)C (stereo not drawn) [Squalane] | > 50
55 | CCOC(=O)NC(O)C(Cl)(Cl)Cl (stereo not drawn) [Carbocloral] | > 50
56 | CC[C@@H]1C(=O)OC[C@@H]1Cc1cncn1C [Pilocarpine] | > 50
57 | CC(=O)c1ccc2c(c1)N(CCCN(C)C)c1ccccc1S2 [Acetopromazine maleate] | 9.14
58 | C/C(=C\c1csc(C)n1)[C@@H]1C[C@@H]2O[C@]2(C)CCC[C@H](C)[C@H](O)[C@@H](C)C(=O)C(C)(C)[C@@H](O)CC(=O)O1 [Epothilone B] | 0.00955
59 | NCC1(Cc2noc(=O)[nH]2)CCCCC1 [PD 0200347] | > 90
60 | O=C(Nc1ccc(/C=C/c2ccc(NC(=O)c3cc(S(=O)(=O)O)c4cccnc4c3O)cc2S(=O)(=O)O)c(S(=O)(=O)O)c1)c1cc(S(=O)(=O)O)c2cccnc2c1O [Ubistatin A] | > 50
61 | O=C(O)C(F)(F)C(F)(F)C(F)(F)C(F)(F)C(F)(F)C(F)(F)C(F)(F)C(F)(F)F [Perfluorononanoic acid] | > 90
62 | N#CSCSc1nc2ccccc2s1 [2-(Thiocyanomethylthio)benzothiazole] | 3.06
63 | CC(C)c1cccc(C(C)C)c1N1C(=O)c2ccc(O)cc2C1=O [5HPP-33] | > 90
64 | C=CCN1CC[C@]23c4c5ccc(O)c4O[C@H]2C(=O)CC[C@@]3(O)[C@H]1C5 [Naloxone] | > 50
65 | CN(C)c1cccc(O)c1 [3-Dimethylaminophenol] | > 90
66 | CC(C)CCOC(=O)/C=C/c1ccccc1 [3-Methylbutyl cinnamate] | > 90
67 | Oc1cccc2ccccc12 [1-Naphthol] | > 90
68 | O=c1cc(-c2ccccc2)oc2cc(O)cc(O)c12 [Chrysin] | 62.4
69 | CCOC(=O)[C@H](CCc1ccccc1)N[C@@H](C)C(=O)N1CCC[C@H]1C(=O)O [Enalapril] | > 50

same assay, conditions: rat, gh3-tre-luc cells, AC50 (uM) modified / 1000, Tox21_110001=Tox21_111146; viability, 1 nM T3 present, 24 h

Row | SMILES | CC50 at 24 h [µM]
70 | Oc1ccc(Cl)cc1Cc1ccccc1 [Clorophene] | 23.9

same assay, conditions: rat, gh3-tre-luc cells, AC50 (uM) modified / 1000, Tox21_110001=Tox21_200580; viability, 1 nM T3 present, 24 h

Row | SMILES | CC50 at 24 h [µM]
71 | CNC [Dimethylammonium nitrate] | > 90

same assay, conditions: rat, gh3-tre-luc cells, AC50 (uM) modified / 1000, Tox21_110001=Tox21_200635; viability, 1 nM T3 present, 24 h

Row | SMILES | CC50 at 24 h [µM]
72 | N#CCCC#N [Succinonitrile] | > 90

same assay, conditions: rat, gh3-tre-luc cells, AC50 (uM) modified / 1000, Tox21_110001=Tox21_200801; viability, 1 nM T3 present, 24 h

Row | SMILES | CC50 at 24 h [µM]
73 | C=CCBr [Allyl bromide] | > 100

same assay, conditions: rat, gh3-tre-luc cells, AC50 (uM) modified / 1000, Tox21_110001=Tox21_201462; viability, 1 nM T3 present, 24 h

Row | SMILES | CC50 at 24 h [µM]
74 | O=[N+]([O-])c1ccc(O)c([N+](=O)[O-])c1 [2,4-Dinitrophenol] | > 90

same assay, conditions: rat, gh3-tre-luc cells, AC50 (uM) modified / 1000, Tox21_110001=Tox21_202289; viability, 1 nM T3 present, 24 h

Row | SMILES | CC50 at 24 h [µM]
75 | CCC[N+](=O)[O-] [1-Nitropropane] | > 90

same assay, conditions: rat, gh3-tre-luc cells, AC50 (uM) modified / 1000, Tox21_110001=Tox21_202985; viability, 1 nM T3 present, 24 h

Row | SMILES | CC50 at 24 h [µM]
76 | Oc1ccc(Cl)cc1Cc1ccccc1 [Clorophene] | 43.2

same assay, conditions: rat, gh3-tre-luc cells, AC50 (uM) modified / 1000, Tox21_110001=Tox21_300030; viability, 1 nM T3 present, 24 h

Row | SMILES | CC50 at 24 h [µM]
77 | O=[N+]([O-])c1ccc(O)c([N+](=O)[O-])c1 [2,4-Dinitrophenol] | 56.2

same assay, conditions: rat, gh3-tre-luc cells, AC50 (uM) modified / 1000, Tox21_110001=Tox21_300863; viability, 1 nM T3 present, 24 h

Row | SMILES | CC50 at 24 h [µM]
78 | CCNP(=S)(OC)O/C(C)=C/C(=O)OC(C)C (stereo not drawn) [Propetamphos] | > 90

same assay, conditions: rat, gh3-tre-luc cells, AC50 (uM) modified / 1000, Tox21_110001=Tox21_301807; viability, 1 nM T3 present, 24 h

Row | SMILES | CC50 at 24 h [µM]
79 | CC1CN1P(=O)(N1CC1C)N1CC1C (stereo not drawn) [Metepa] | > 90

same assay, conditions: rat, gh3-tre-luc cells, AC50 (uM) modified / 1000, Tox21_110001=Tox21_302106; viability, 1 nM T3 present, 24 h

Row | SMILES | CC50 at 24 h [µM]
80 | C#CC1(O)CCCCC1 [1-Ethynylcyclohexanol] | > 90

same assay, conditions: rat, gh3-tre-luc cells, AC50 (uM) modified / 1000, Tox21_110001=Tox21_400046; viability, 1 nM T3 present, 24 h

Row | SMILES | CC50 at 24 h [µM]
81 | Oc1ccc(Cl)cc1Cc1ccccc1 [Clorophene] | 61.9
